These results are taken from US20250257060A1, “OXADIAZOLE COMPOUND, PHARMACEUTICAL COMPOSITION COMPRISING SAME, AND USE THEREOF” (SUZHOU GENHOUSE BIO CO., LTD., priority 2022, published 2025).

Tested on in the first series: not listed separately
The series can be described thus: Brain-to-blood drug concentration ratio of mice. The format is in vivo. To be noted: mouse, brain, 5 mg/kg PO, 2 h, read-out: Brain drug concentration. The procedure:
On the day of administration, mice were weighed for actual body weight and the administration volume was calculated. In each group of 9 mice, the compound was administered by single intravenous (IV) injection or intragastric (PO) administration. Whole blood samples were collected via the orbit at prescribed time points. After blood sample collection, the samples were immediately transferred to labeled commercial sample tubes containing K2-EDTA (0.85-1.15 mg), followed by centrifugation (3200×g, 4° C., 10 min) and plasma collection. The plasma was transferred to a pre-cooled centrifuge tube, frozen in dry ice, and stored in an ultra-low temperature freezer at −60° C. or lower until the LC-MS/MS analysis. 20 μL of a plasma sample or brain tissue homogenate was taken and 80 μL of an internal standard solution (50 ng/mL solution of propafenone in acetonitrile) was added. The plate was sealed with a film sealer at 165° C., shaken on a micro oscillator (maximum vibration speed) for 10 min, and centrifuged at 4000 rpm for 20 min using a low-speed benchtop centrifuge, 10 μL of supernatant was transferred and 90 μL of acetonitrile was added. The mixture was vortexed and mixed well, and then the plate was sealed with the film sealer at 165° C. After the mixture was vortexed and mixed well, 1 μL of supernatant was taken for LC-MS/MS analysis. Plasma drug concentration data for the compounds were processed in a non-compartmental model using WinNonlin Version 6.3 (Pharsight, Mountain View, CA) pharmacokinetic software. The relevant pharmacokinetic parameters were calculated by a linear logarithmic trapezoid method.
Data processing: brain-to-blood drug concentration ratio of mice at the same time point=drug concentration in brain tissue/drug concentration in plasma
As to `Cn1cc([C@@H]([C@H](O)c2ccccc2)N2Cc3ccc(-c4nnc(C(F)F)o4)cc3S2(=O)=O)cn1` [Compound 80], the concentration at 2 h worked out at 160 ng/mL.
Same read-out and setting: to `O=S1(=O)c2cc(-c3nnc(C(F)F)o3)ccc2CN1[C@H](c1ccccn1)[C@H](O)c1ccc(F)cn1` [Compound 87] belongs 298 ng/mL.

Staying with this series, now noted: mouse, brain, 5 mg/kg PO, 8 h, read-out: Brain drug concentration.
For the compound `Cn1cc([C@@H]([C@H](O)c2ccccc2)N2Cc3ccc(-c4nnc(C(F)F)o4)cc3S2(=O)=O)cn1` [Compound 80], the concentration at 8 h was 72 ng/mL.

Staying with this series, now noted: mouse, brain/plasma, 5 mg/kg PO, 2 h.
For `Cn1cc([C@@H]([C@H](O)c2ccccc2)N2Cc3ccc(-c4nnc(C(F)F)o4)cc3S2(=O)=O)cn1` [Compound 80], the Kp at 2 h worked out at 0.08.
Still for that read-out and setting: to `O=S1(=O)c2cc(-c3nnc(C(F)F)o3)ccc2CN1[C@H](c1ccccn1)[C@H](O)c1ccc(F)cn1` [Compound 87] belongs 0.28.

Still in this series, the particulars now being: mouse, brain/plasma, 5 mg/kg PO, 8 h.
Regarding `Cn1cc([C@@H]([C@H](O)c2ccccc2)N2Cc3ccc(-c4nnc(C(F)F)o4)cc3S2(=O)=O)cn1` [Compound 80], the Kp at 8 h stood at 0.1.

The series is the same for the next values; noted with them: mouse, plasma, 5 mg/kg PO, 2 h, read-out: Blood drug concentration.
As to `Cn1cc([C@@H]([C@H](O)c2ccccc2)N2Cc3ccc(-c4nnc(C(F)F)o4)cc3S2(=O)=O)cn1` [Compound 80], the concentration at 2 h stood at 1910 ng/mL.
On the same count and under the same terms, to `O=S1(=O)c2cc(-c3nnc(C(F)F)o3)ccc2CN1[C@H](c1ccccn1)[C@H](O)c1ccc(F)cn1` [Compound 87] belongs 1060 ng/mL.

The same series, now with this note: mouse, plasma, 5 mg/kg PO, 8 h, read-out: Blood drug concentration.
Consider `Cn1cc([C@@H]([C@H](O)c2ccccc2)N2Cc3ccc(-c4nnc(C(F)F)o4)cc3S2(=O)=O)cn1` [Compound 80], for which the concentration at 8 h amounted to 695 ng/mL.

Tested on in the next series: not listed separately
The series can be described thus: Pharmacokinetic test in mice (IV and PO). The format is in vivo, BALB/c mice. The note with it: BALB/c, mouse, plasma, po, 5 mg/kg; read-out: C0/Cmax. On the procedure:
In this example, the pharmacokinetic behavior of the compounds after intravenous injection (IV) and intragastric (PO) administration in BALB/c mice was tested.
On the day of administration, mice were weighed for actual body weight and the administration volume was calculated. Each compound was tested in two groups with 3 mice in each group, one group administered by single intravenous injection and the other group of mice by single intragastric administration. Whole blood samples were collected via the orbit at prescribed time points (0.25 h, 0.5 h, 1 h, 2 h, 4 h, 8 h, and 24 h after administration). After blood sample collection, the samples were immediately transferred to labeled commercial sample tubes containing K2-EDTA (0.85-1.15 mg), followed by centrifugation (3200×g, 4° C., 10 min) and plasma collection. The plasma was transferred to a pre-cooled centrifuge tube, frozen in dry ice, and stored in an ultra-low temperature freezer at −60° C. or lower until the LC-MS/MS analysis.
Plasma concentrations were determined by a LC-MS/MS method. Plasma drug concentration data for compounds 1 and 2 were processed in a non-compartmental model using WinNonlin Version 6.3 (Pharsight, Mountain View, CA) pharmacokinetic software. The relevant pharmacokinetic parameters were calculated by a linear logarithmic trapezoid method.
As for `Cn1cc([C@@H]([C@H](O)c2ccccc2)N2Cc3ccc(-c4nnc(C(F)F)o4)cc3S2(=O)=O)cn1` [Compound 80], the Cmax was determined as 7.17 µM.
For `O=S1(=O)c2cc(-c3nnc(C(F)F)o3)ccc2CN1[C@H](c1ccccn1)[C@H](O)c1ccc(F)cn1` [Compound 87], the Cmax was determined as 5.75 µM.

Still in this series, the particulars now being: BALB/c, mouse, plasma; mice, IV 1 mg/kg.
On to `Cn1cc([C@@H]([C@H](O)c2ccccc2)N2Cc3ccc(-c4nnc(C(F)F)o4)cc3S2(=O)=O)cn1` [Compound 80], for which the AUC(0-inf) came to 5.28 µM·h and the AUC(0-t) was determined as 5.05 µM·h.
For `O=S1(=O)c2cc(-c3nnc(C(F)F)o3)ccc2CN1[C@H](c1ccccn1)[C@H](O)c1ccc(F)cn1` [Compound 87], the AUC(0-inf) stood at 1.77 µM·h and the AUC(0-t) turned out to be 1.62 µM·h.

Staying with this series, now noted: BALB/c, mouse, plasma; mice, IV 1 mg/kg (C0).
`Cn1cc([C@@H]([C@H](O)c2ccccc2)N2Cc3ccc(-c4nnc(C(F)F)o4)cc3S2(=O)=O)cn1` [Compound 80] returned a Cmax of 1.91 µM.
`O=S1(=O)c2cc(-c3nnc(C(F)F)o3)ccc2CN1[C@H](c1ccccn1)[C@H](O)c1ccc(F)cn1` [Compound 87] displayed a Cmax of 1.89 µM.

Staying with this series, now noted: BALB/c, mouse, plasma; mice, IV 1 mg/kg; read-out: MRT(0-∞).
Take `Cn1cc([C@@H]([C@H](O)c2ccccc2)N2Cc3ccc(-c4nnc(C(F)F)o4)cc3S2(=O)=O)cn1` [Compound 80]: the MRT inf is 2.6 h.
Regarding `O=S1(=O)c2cc(-c3nnc(C(F)F)o3)ccc2CN1[C@H](c1ccccn1)[C@H](O)c1ccc(F)cn1` [Compound 87], the MRT inf came out at 0.8 h.

The series is the same for the next values; noted with them: BALB/c, mouse, plasma; mice, IV 1 mg/kg; read-out: Vz.
On to `Cn1cc([C@@H]([C@H](O)c2ccccc2)N2Cc3ccc(-c4nnc(C(F)F)o4)cc3S2(=O)=O)cn1` [Compound 80], for which the Vd worked out at 1 L/kg.
For `O=S1(=O)c2cc(-c3nnc(C(F)F)o3)ccc2CN1[C@H](c1ccccn1)[C@H](O)c1ccc(F)cn1` [Compound 87], the Vd was determined as 0.9 L/kg.

Staying with this series, now noted: BALB/c, mouse, plasma; mice, PO 5 mg/kg.
Turning to `Cn1cc([C@@H]([C@H](O)c2ccccc2)N2Cc3ccc(-c4nnc(C(F)F)o4)cc3S2(=O)=O)cn1` [Compound 80], the AUC(0-inf) turned out to be 34 µM·h, the AUC(0-t) worked out at 25.5 µM·h and the time of peak concentration (Tmax) is 1 h.
As to `O=S1(=O)c2cc(-c3nnc(C(F)F)o3)ccc2CN1[C@H](c1ccccn1)[C@H](O)c1ccc(F)cn1` [Compound 87], the AUC(0-inf) came to 15.5 µM·h, the AUC(0-t) worked out at 15.1 µM·h and the Tmax was found to be 1 h.

The same series, now with this note: BALB/c, mouse, plasma; mice, PO 5 mg/kg; read-out: MRT(0-∞).
In the case of `Cn1cc([C@@H]([C@H](O)c2ccccc2)N2Cc3ccc(-c4nnc(C(F)F)o4)cc3S2(=O)=O)cn1` [Compound 80], the MRT inf came to 5.6 h.
On the same count and under the same terms, the result for `O=S1(=O)c2cc(-c3nnc(C(F)F)o3)ccc2CN1[C@H](c1ccccn1)[C@H](O)c1ccc(F)cn1` [Compound 87] reads 2.3 h.

The same series, now with this note: mice, IV 1 mg/kg.
`Cn1cc([C@@H]([C@H](O)c2ccccc2)N2Cc3ccc(-c4nnc(C(F)F)o4)cc3S2(=O)=O)cn1` [Compound 80] yielded a CLz of 6.7 mL/min/kg and a t½z of 1.8 h.
`O=S1(=O)c2cc(-c3nnc(C(F)F)o3)ccc2CN1[C@H](c1ccccn1)[C@H](O)c1ccc(F)cn1` [Compound 87] displayed a CLz of 18.3 mL/min/kg and a t½z of 0.6 h.

The series is the same for the next values; noted with them: mice, PO 5 mg/kg.
Regarding `Cn1cc([C@@H]([C@H](O)c2ccccc2)N2Cc3ccc(-c4nnc(C(F)F)o4)cc3S2(=O)=O)cn1` [Compound 80], the F is 101.2% and the t½z came to 4.2 h.
For `O=S1(=O)c2cc(-c3nnc(C(F)F)o3)ccc2CN1[C@H](c1ccccn1)[C@H](O)c1ccc(F)cn1` [Compound 87], in that order: 175.8% and 1.5 h.

The target of a further series is HDAC6 (Homo sapiens (Human), UniProt Q9UBN7). The series can be described thus: HDAC6 enzymatic activity assay.
Sequence of HDAC6 (Q9UBN7 whole entry): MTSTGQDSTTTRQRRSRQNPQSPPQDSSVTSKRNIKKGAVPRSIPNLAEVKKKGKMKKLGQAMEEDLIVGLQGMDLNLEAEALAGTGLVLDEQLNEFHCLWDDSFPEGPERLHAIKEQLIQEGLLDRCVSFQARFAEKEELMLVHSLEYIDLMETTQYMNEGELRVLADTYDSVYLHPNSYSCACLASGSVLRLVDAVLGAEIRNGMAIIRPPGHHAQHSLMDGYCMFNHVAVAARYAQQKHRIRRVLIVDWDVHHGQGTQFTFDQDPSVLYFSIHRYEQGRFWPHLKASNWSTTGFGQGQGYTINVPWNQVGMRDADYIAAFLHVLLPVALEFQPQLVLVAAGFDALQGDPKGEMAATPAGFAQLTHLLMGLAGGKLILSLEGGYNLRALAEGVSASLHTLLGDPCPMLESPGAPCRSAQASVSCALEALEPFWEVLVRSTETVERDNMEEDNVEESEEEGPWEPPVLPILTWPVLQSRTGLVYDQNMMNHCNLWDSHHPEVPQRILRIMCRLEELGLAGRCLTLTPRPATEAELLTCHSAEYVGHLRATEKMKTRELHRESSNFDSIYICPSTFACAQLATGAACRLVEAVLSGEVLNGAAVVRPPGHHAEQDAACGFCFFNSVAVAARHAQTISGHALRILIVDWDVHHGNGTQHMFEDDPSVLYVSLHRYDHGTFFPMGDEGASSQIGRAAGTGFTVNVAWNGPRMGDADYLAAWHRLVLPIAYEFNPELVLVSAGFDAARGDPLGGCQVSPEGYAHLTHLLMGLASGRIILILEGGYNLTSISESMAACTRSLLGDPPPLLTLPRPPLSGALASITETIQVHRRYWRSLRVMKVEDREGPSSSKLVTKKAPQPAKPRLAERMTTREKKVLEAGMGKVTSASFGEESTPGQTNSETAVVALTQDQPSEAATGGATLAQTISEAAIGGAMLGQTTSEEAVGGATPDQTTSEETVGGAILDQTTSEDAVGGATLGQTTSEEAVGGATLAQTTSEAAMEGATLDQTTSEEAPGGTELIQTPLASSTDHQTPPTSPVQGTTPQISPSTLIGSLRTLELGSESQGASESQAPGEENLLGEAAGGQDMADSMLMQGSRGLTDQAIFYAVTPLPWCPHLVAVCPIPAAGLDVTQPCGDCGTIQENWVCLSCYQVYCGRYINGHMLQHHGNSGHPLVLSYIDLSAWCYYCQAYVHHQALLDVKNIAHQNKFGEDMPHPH
Settings: not given
It is filed as biochemical. On the procedure:
The inhibitory activity of the compounds of the present application against HDAC6 was evaluated by an enzymatic activity assay. HDAC6 (Abcam), test compounds, and a 20 µM substrate solution (Ac-GAK(Ac)-AMC) were each added to a 384-well plate, and the plate was incubated at 37° C. for 30 min. […] and […] were added, and the plate was incubated at room temperature for 15 min. […] IC50 was obtained by fitting using GraphPadPrism 7.0 software.
With `CS(=O)(=O)N[C@@H]1CCCC[C@H]1N1Cc2ccc(-c3nnc(C(F)F)o3)cc2S1(=O)=O` [Compound 24], the IC50 was determined as 194 nM.
The same measure, in the same setting: the result for `CC(C)(C)OC(=O)N[C@@H]1CCCC[C@H]1N1Cc2ccc(-c3nnc(C(F)F)o3)cc2S1(=O)=O` [Compound 20] reads 224 nM.
The same measure, in the same setting: to `O=S1(=O)c2cc(-c3nnc(C(F)F)o3)ccc2CN1c1ccccc1-c1ccccn1` [Compound 117] belongs 449 nM; to `O=S1(=O)c2cc(-c3nnc(C(F)F)o3)ccc2CN1[C@@H]1CCCC[C@H]1NS(=O)(=O)C(F)(F)F` [Compound 116], 173 nM.
Same read-out and setting: the result for `O=S1(=O)c2cc(-c3nnc(C(F)F)o3)ccc2CN1[C@@H](c1ncccn1)[C@H](O)c1ncccn1` [Compound 103j-A] reads 285 nM.
On to `O=S1(=O)c2cc(-c3nnc(C(F)F)o3)ccc2CN1[C@H](c1ncccn1)[C@@H](O)c1ncccn1` [Compound 103j-B], for which the IC50 was determined as 108 nM.
Same read-out and setting: the result for `O=C(N[C@@H]1CCCC[C@H]1N1Cc2ccc(-c3nnc(C(F)F)o3)cc2S1(=O)=O)C(F)(F)F` [Compound 55] reads 48.4 nM; that for `O=S1(=O)c2cc(-c3nnc(C(F)F)o3)ccc2CN1Cc1cccc(Cl)c1` [Compound 60], 490 nM; that for `O=S1(=O)c2cc(-c3nnc(C(F)F)o3)ccc2CN1[C@@H](c1ccc(F)cn1)[C@H](O)c1ccc(F)cn1` (single isomer, unassigned) [Compound 88j-B], 668 nM.
Still for that read-out and setting: the result for `CC(F)(F)C(=O)N[C@@H]1CCCC[C@H]1N1Cc2c(F)cc(-c3nnc(C(F)F)o3)cc2S1(=O)=O` [Compound 39] reads 261 nM.
Still for that read-out and setting: to `O=S1(=O)c2cc(-c3nnc(C(F)F)o3)ccc2CN1[C@@H](c1ccccn1)[C@H](O)c1ccc(F)cn1` (single isomer, unassigned) [Compound 84j-B] belongs 113 nM; to `Cn1cc([C@@H](O)[C@H](c2cnn(C)c2)N2Cc3ccc(-c4nnc(C(F)F)o4)cc3S2(=O)=O)cn1` (single isomer, unassigned) [Compound 95j-B-A], 66.8 nM; to `O=S1(=O)c2cc(-c3nnc(C(F)F)o3)ccc2CN1[C@@H](c1ccccn1)[C@H](O)c1ccc(F)cn1` (single isomer, unassigned) [Compound 84j-A-A], 210 nM.
Take `O=S1(=O)c2cc(-c3nnc(C(F)F)o3)ccc2CN1[C@@H](c1ccc(F)cn1)[C@H](O)c1ccc(F)cn1` (single isomer, unassigned) [Compound 88j-A]: half-maximal inhibition (IC50) was put at 132 nM.
